# In ChEMBL document CHEMBL4406836, “The design of a cell-selective fowlicidin-1-derived peptide with both antimicrobial and anti-inflammatory activities” (Eur J Med Chem, 2019):
# Activity calls are given as the source filed them. The rule behind the calls is not given here.
# What was measured:
# Staphylococcus aureus [1] = assay: Antibacterial activity against methicillin-resistant Staphylococcus aureus CCARM 3090 assessed as reduction in bacterial growth incubated for 18 hrs by spectrophotometry based microtiter broth dilution method; type: functional; conditions: CCARM 3090, 18 h
# Pseudomonas aeruginosa [2] = assay: Antibacterial activity against multidrug-resistant Pseudomonas aeruginosa CCARM 2095 assessed as reduction in bacterial growth at 4 uM incubated for 72 hrs in presence of chloramphenicol by spectrophotometry; type: functional; conditions: CCARM 2095, 72 h
# Pseudomonas aeruginosa [3] = type: functional; conditions: CCARM 2095, 72 h
# Staphylococcus aureus [4] = assay: Fractional inhibitory concentration, ratio of MIC of compound in presence of […] uM ciprofloxacin to MIC of ciprofloxacin for antibacterial activity against methicillin-resistant Staphylococcus aureus CCARM 3089; type: functional
# Staphylococcus aureus [5] = assay: Fractional inhibitory concentration index, sum of ratio of MIC of compound in presence of […] uM ciprofloxacin to MIC of ciprofloxacin and ratio of MIC of compound in presence of ciprofloxacin to MIC of ciprofloxacin for antibacterial activity against methicillin-resistant Staphylococcus aureus CCARM 3089; type: functional
# Pseudomonas aeruginosa [6] = assay: Antibacterial activity against multidrug-resistant Pseudomonas aeruginosa CCARM 2095 assessed as reduction in bacterial growth at 4 uM incubated for 72 hrs in presence of ciprofloxacin by spectrophotometry; type: functional; conditions: CCARM 2095, 72 h
# Pseudomonas aeruginosa [7] = assay: Antibacterial activity against multidrug-resistant Pseudomonas aeruginosa CCARM 2095 assessed as reduction in bacterial growth incubated for 72 hrs by spectrophotometry; type: functional; conditions: CCARM 2095, 72 h
# RAW264.7 [8] = assay: Antiinflammatory activity in mouse RAW264.7 cells assessed as reduction in LPS-induced TNFalpha gene expression at 8 uM incubated for 6 hrs by qRT-PCR analysis; type: functional, cell-based
# Staphylococcus aureus [9] = assay: Antibacterial activity against methicillin-resistant Staphylococcus aureus CCARM 3089 assessed as reduction in bacterial growth at 8 uM incubated for 72 hrs in presence of chloramphenicol by spectrophotometry; type: functional; conditions: CCARM 3089, 72 h
# Pseudomonas aeruginosa [10] = assay: Potency index, ratio of MIC of melittin to MIC of compound for antibacterial activity against multidrug-resistant Pseudomonas aeruginosa CCARM 2109 assessed as reduction in bacterial growth incubated for 18 hrs by spectrophotometry based microtiter broth dilution method; type: functional
# Salmonella typhimurium = assay: Antibacterial activity against Salmonella typhimurium KCTC 1926 assessed as reduction in bacterial growth incubated for 18 hrs by spectrophotometry based microtiter broth dilution method; type: functional, Salmonella enterica subsp. enterica serovar Typhimurium; conditions: Salmonella enterica, KCTC 1926, 18 h
# Staphylococcus aureus [11] = assay: Antibacterial activity against Staphylococcus aureus KCTC 1621 assessed as reduction in bacterial growth incubated for 18 hrs in presence of 150 mM NaCl by spectrophotometry based microtiter broth dilution method; type: functional; conditions: KCTC 1621, 18 h
# Staphylococcus aureus [12] = assay: Antibacterial activity against methicillin-resistant Staphylococcus aureus CCARM 3089 assessed as reduction in bacterial growth at 4 uM incubated for 72 hrs in presence of chloramphenicol by spectrophotometry; type: functional; conditions: CCARM 3089, 72 h
# Staphylococcus aureus [13] = assay: Antibacterial activity against Staphylococcus aureus KCTC 1621 assessed as reduction in bacterial growth incubated for 18 hrs in presence of 4.5 mM KCl by spectrophotometry based microtiter broth dilution method; type: functional; conditions: KCTC 1621, 18 h
# Staphylococcus aureus [14] = assay: Antibacterial activity against Staphylococcus aureus KCTC 1621 assessed as reduction in bacterial growth incubated for 18 hrs by spectrophotometry based microtiter broth dilution method; type: functional; conditions: KCTC 1621, 18 h
# Escherichia coli [15] = assay: Antibacterial activity against Escherichia coli KCTC 1682 assessed as reduction in bacterial growth incubated for 18 hrs by spectrophotometry based microtiter broth dilution method; type: functional; conditions: KCTC 1682, 18 h
# Staphylococcus aureus [16] = assay: Potency index, ratio of MIC of melittin to MIC of compound for antibacterial activity against methicillin-resistant Staphylococcus aureus CCARM 3095 assessed as reduction in bacterial growth incubated for 18 hrs by spectrophotometry based microtiter broth dilution method; type: functional
# Pseudomonas aeruginosa [17] = assay: Antibacterial activity against Pseudomonas aeruginosa KCTC 1637 assessed as reduction in bacterial growth incubated for 18 hrs by spectrophotometry based microtiter broth dilution method; type: functional; conditions: KCTC 1637, 18 h
# Staphylococcus aureus [18] = assay: Antibacterial activity against Staphylococcus aureus KCTC 1621 assessed as reduction in bacterial growth incubated for 18 hrs in presence of 6 uM NH4Cl by spectrophotometry based microtiter broth dilution method; type: functional; conditions: KCTC 1621, 18 h
# [19] = Therapeutic index, ratio of MHC10 for hemolytic activity in sheep RBC assessed as minimal hemolytic concentration causing 10% hemolysis to MIC for antibacterial activity; type: toxicity; conditions: sheep red blood cells
# Escherichia coli [20] = assay: Antibacterial activity against Escherichia coli KCTC 1682 assessed as reduction in bacterial growth incubated for 18 hrs in presence of 20 % human serum by spectrophotometry based microtiter broth dilution method; type: functional; conditions: KCTC 1682, 18 h
# Staphylococcus aureus [21] = assay: Potency index, ratio of MIC of melittin to MIC of compound for antibacterial activity against methicillin-resistant Staphylococcus aureus CCARM 3090 assessed as reduction in bacterial growth incubated for 18 hrs by spectrophotometry based microtiter broth dilution method; type: functional
# Lipopolysaccharide (LPS) [22] = assay: Displacement of BODIPY-TR-cadaverine from Escherichia coli O111:B4 LPS by fluorescence spectrophotometry
# Pseudomonas aeruginosa [23] = assay: Potency index, ratio of MIC of LL-37 to MIC of compound for antibacterial activity against multidrug-resistant Pseudomonas aeruginosa CCARM 2095 assessed as reduction in bacterial growth incubated for 18 hrs by spectrophotometry based microtiter broth dilution method; type: functional
# Escherichia coli [24] = assay: Antibacterial activity against Escherichia coli KCTC 1682 assessed as reduction in bacterial growth incubated for 18 hrs in presence of 2.5 mM CaCl2 by spectrophotometry based microtiter broth dilution method; type: functional; conditions: KCTC 1682, 18 h
# Escherichia coli [25] = assay: Antibacterial activity against Escherichia coli KCTC 1682 assessed as reduction in bacterial growth incubated for 18 hrs in presence of 150 mM NaCl by spectrophotometry based microtiter broth dilution method; type: functional; conditions: KCTC 1682, 18 h
# Lipopolysaccharide (LPS) [26] = assay: Displacement of BODIPY-TR-cadaverine from Escherichia coli O111:B4 LPS at 16 uM by fluorescence spectrophotometry relative to control
# Staphylococcus aureus [27] = assay: Potency index, ratio of MIC of LL-37 to MIC of compound for antibacterial activity against methicillin-resistant Staphylococcus aureus CCARM 3089 assessed as reduction in bacterial growth incubated for 18 hrs by spectrophotometry based microtiter broth dilution method; type: functional
# Bacillus subtilis = assay: Antibacterial activity against Bacillus subtilis KCTC 3068 assessed as reduction in bacterial growth incubated for 18 hrs by spectrophotometry based microtiter broth dilution method; type: functional; conditions: KCTC 3068, 18 h
# Escherichia coli [28] = assay: Antibacterial activity against Escherichia coli KCTC 1682 assessed as reduction in bacterial growth incubated for 18 hrs in presence of 6 uM NH4Cl by spectrophotometry based microtiter broth dilution method; type: functional; conditions: KCTC 1682, 18 h
# Enterococcus faecium = assay: Potency index, ratio of MIC of melittin to MIC of compound for antibacterial activity against vancomycin-resistant Enterococcus faecium ATCC 51559 assessed as reduction in bacterial growth incubated for 18 hrs by spectrophotometry based microtiter broth dilution method; type: functional
# RAW264.7 [29] = assay: Antiinflammatory activity in mouse RAW264.7 cells assessed as reduction in LPS-induced TNFalpha release at 8 uM preincubated for 1 hr followed by LPS-challenge and measured after 6 hrs by ELISA relative to control; type: functional
# Pseudomonas aeruginosa [30] = assay: Potency index, ratio of MIC of melittin to MIC of compound for antibacterial activity against multidrug-resistant Pseudomonas aeruginosa CCARM 2095 assessed as reduction in bacterial growth incubated for 18 hrs by spectrophotometry based microtiter broth dilution method; type: functional
compound,measurement,setting,value
CC[C@H](C)[C@H](NC(=O)[C@H](CCCCN)NC(=O)[C@H](CCC(=O)O)NC(=O)[C@H](CCCCN)NC(=O)[C@H](CO)NC(=O)[C@H](CCCCN)NC(=O)[C@H](CCCNC(=N)N)NC(=O)[C@H](Cc1ccccc1)NC(=O)[C@H](Cc1ccccc1)NC(=O)[C@H](CC(=O)O)NC(=O)CNC(=O)[C@H](CC(C)C)NC(=O)[C@@H](N)CC(C)C)C(=O)NCC(=O)N[C@@H](CCCCN)C(=O)N[C@@H](CCC(=O)O)C(=O)N[C@@H](Cc1ccccc1)C(=O)N[C@@H](CCCCN)C(=O)N[C@@H](CCCNC(=N)N)C(=O)N[C@H](C(=O)N[C@H](C(=O)N[C@@H](CCC(N)=O)C(=O)N[C@@H](CCCNC(=N)N)C(=O)N[C@H](C(=O)N[C@@H](CCCCN)C(=O)N[C@@H](CC(=O)O)C(=O)N[C@@H](Cc1ccccc1)C(=O)N[C@@H](CC(C)C)C(=O)N[C@@H](CCCNC(=N)N)C(=O)N[C@@H](CC(N)=O)C(=O)N[C@@H](CC(C)C)C(=O)N[C@H](C(=O)N1CCC[C@H]1C(=O)N[C@@H](CCCNC(=N)N)C(=O)N[C@H](C(=O)N[C@@H](CCC(=O)O)C(=O)N[C@@H](CO)C(=O)O)[C@@H](C)O)C(C)C)[C@@H](C)CC)C(C)C)[C@@H](C)CC [CATHELICIDIN],MIC,Staphylococcus aureus [1],4 µM
same,MIC,Pseudomonas aeruginosa [2],2 µM
same,MIC,Pseudomonas aeruginosa [3],128 µM
same,FIC,Staphylococcus aureus [4],0.25
same,fractional inhibitory concentration index (FICI),Staphylococcus aureus [5],1.25
same,MIC,Pseudomonas aeruginosa [6],2 µM
same,MIC,Pseudomonas aeruginosa [7],4 µM
same,inhibition,RAW264.7 [8],Active
same,MIC,Staphylococcus aureus [9],4 µM
H-LVIRWVRAGYKLYRAIKKK-NH2,Ratio,Pseudomonas aeruginosa [10],2 - 8
same,MIC,Salmonella typhimurium,2 µM
same,MIC,Staphylococcus aureus [11],2 µM
same,MIC,Staphylococcus aureus [12],0.5 µM
same,MIC,Staphylococcus aureus [13],2 µM
same,MIC,Staphylococcus aureus [14],2 µM
same,MIC,Escherichia coli [15],4 µM
same,Ratio,Staphylococcus aureus [16],2 - 8
same,MIC,Staphylococcus aureus [1],2 µM
same,MIC,Pseudomonas aeruginosa [17],8 µM
same,MIC,Staphylococcus aureus [18],2 µM
same,selectivity ratio,[19],28.4
same,MIC,Pseudomonas aeruginosa [3],64 µM
same,FIC,Staphylococcus aureus [4],0.25
same,MIC,Escherichia coli [20],8 µM
same,Ratio,Staphylococcus aureus [21],2 - 8
same,fractional inhibitory concentration index (FICI),Staphylococcus aureus [5],0.375
same,inhibition,Lipopolysaccharide (LPS) [22],Dose-dependent effect
same,Ratio,Pseudomonas aeruginosa [23],2 - 8
same,MIC,Pseudomonas aeruginosa [7],2 µM
same,MIC,Escherichia coli [24],4 µM
same,MIC,Escherichia coli [25],4 µM
same,inhibition,Lipopolysaccharide (LPS) [26],100%
same,Ratio,Staphylococcus aureus [27],2 - 8
same,MIC,Bacillus subtilis,2 µM
same,MIC,Escherichia coli [28],4 µM
same,Ratio,Enterococcus faecium,2 - 8
same,inhibition at 8 µM,RAW264.7 [29],75.2%
same,Ratio,Pseudomonas aeruginosa [30],2 - 8
